Structures are written as SMILES. Values joined by “and” are separate entries in the source; they are usually repeats but may differ in a detail not shown here. Identical values can stand only once. Active and inactive are the calls of the source. No rule for the calls is given here.

The target of the test is Alkaline phosphatase, germ cell type (Homo sapiens) (UniProt P10696). In words: placental-like alkaline phosphatase activators or inhibitors – biochemical, human placental-like ALPPL2 isozyme, selectivity assay for mouse IAP activator project, SAR follow-up (AID 493139). Particulars: purified human placental-like alkaline phosphatase, enzymatic activity.
Sequence of Alkaline phosphatase, germ cell type (Homo sapiens) (P10696 whole entry, looked up): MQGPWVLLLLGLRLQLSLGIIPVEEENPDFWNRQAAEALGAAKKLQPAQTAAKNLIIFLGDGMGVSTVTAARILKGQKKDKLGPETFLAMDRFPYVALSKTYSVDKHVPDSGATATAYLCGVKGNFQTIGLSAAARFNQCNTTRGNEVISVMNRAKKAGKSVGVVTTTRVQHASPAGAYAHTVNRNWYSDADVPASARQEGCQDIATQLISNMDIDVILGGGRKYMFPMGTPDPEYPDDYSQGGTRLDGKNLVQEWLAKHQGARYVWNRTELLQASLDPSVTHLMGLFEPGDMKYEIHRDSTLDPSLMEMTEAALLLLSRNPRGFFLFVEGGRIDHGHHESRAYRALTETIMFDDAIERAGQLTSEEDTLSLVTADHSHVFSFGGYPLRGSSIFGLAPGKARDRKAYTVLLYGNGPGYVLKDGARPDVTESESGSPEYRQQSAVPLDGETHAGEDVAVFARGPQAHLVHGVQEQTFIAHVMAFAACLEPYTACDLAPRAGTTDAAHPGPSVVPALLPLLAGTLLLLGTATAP

On to `NS(=O)(=O)c1ccc(-c2ccc(/C=C3\SC(=S)N(C4CCS(=O)(=O)C4)C3=O)o2)cc1` (stereo unspecified), for which the IC50 (inhibition of PLAP activity) is > 100 µM (inactive).

For the compound `O=C(CN1C(=O)/C(=C/c2ccco2)SC1=S)NC1C=CS(=O)(=O)C1` (stereo unspecified), the IC50 (inhibition of PLAP activity) is 28.5 µM.

As to `O=C(CCN1C(=O)/C(=C/c2ccco2)SC1=S)Nc1ccc(O)cc1C(=O)O`, the IC50 (inhibition of PLAP activity) was > 100 µM (inactive).

Take `CCCSc1nnc(NC(=O)CSc2sc3c(O)cc(=O)[nH]c3c2C#N)s1`: the IC50 (inhibition of PLAP activity) was > 100 µM (inactive).

For `CCc1nnc(NC(=O)CSc2sc3c(O)cc(=O)[nH]c3c2C#N)s1`, the IC50 (inhibition of PLAP activity) is > 100 µM (inactive).

`O=C(CN1C(=O)/C(=C/c2ccco2)SC1=S)Nc1ccc(C(=O)O)c(O)c1`: the IC50 (inhibition of PLAP activity) was 78.4 µM.

With `CC(C)N1CCC(=NNC(=O)c2cc(O)c(O)c(O)c2)CC1`, the IC50 (inhibition of PLAP activity) is > 100 µM (inactive) and 61.4 µM.

As to `COc1ccc(N2CCN(C(=O)CN3C(=O)/C(=C\c4ccco4)SC3=S)CC2)cc1`, the IC50 (inhibition of PLAP activity) was > 100 µM (inactive).

As for `COc1ccc(NC(=O)CCNS(=O)(=O)c2ccc3[nH]c(=O)oc3c2)cc1Cl`, the IC50 (inhibition of PLAP activity) was > 100 µM (inactive).

For the compound `O=C(CN1C(=O)/C(=C\c2ccco2)SC1=S)Nc1ccccc1C(=O)O`, the IC50 (inhibition of PLAP activity) is > 100 µM (inactive).

As for `N#Cc1c(SCC(=O)Nc2nncs2)sc2c(O)cc(=O)[nH]c12`, the IC50 (inhibition of PLAP activity) is > 100 µM (inactive).

Source of the values: PubChem BioAssay AID493139 (Sanford-Burnham Center for Chemical Genomics, 2011).
